These results are taken from patent US7763580B2, “Methods for treating conditions associated with the accumulation of excess extracellular matrix” (University of Utah Research Foundation, priority 1999, dated 2010).

Assay [1] concerns anti-Thy 1 glomerulonephritis. Briefly: Glomerular ED1+ monocyte/macrophage count. To be noted: Enalapril alone, P<0.05. In kind it is in vivo, Sprague Dawley rats. On the procedure: These experiments were performed on male Sprague Dawley rats (200-250 g) obtained from the Sasco colony of Charles River Laboratories (Wilmington, Mass., USA). Animal housing and care were in accordance with the NIH Guide for the Care and Use of Laboratory Animals, NIH Publication No. 85-23, 1985. Animals were fed a normal protein diet (22% protein, Teklad No. 86 550, Teklad Premier Laboratory Diets, Madison, Wis., USA). Glomerulonephritis was induced by tail vein injection of 2.25 mg/Kg of the monoclonal anti-Thy 1.1 antibody OX-7 (NCCC, Biovest International Inc, Minneapolis, Minn., USA). OX-7 binds to a Thy 1-like epitope on the surface of mesangial cells causing complement-dependent cell lysis followed by fibrotic tissue repair (Bagchus et al., Lab Invest. 55:680-687 (1986)). Control animals were injected with similar volumes of phosphate-buffered saline (PBS). […] The intensity of glomerular staining of collagen I and fibronectin was evaluated according to a 0 to 4 scale, which has been described in detail previously (Yamamoto et al., Kidney Int. 49:461-469 (1996)). The number of cells per glomerulus, staining positive for the monocyte/macrophage marker ED1, were counted. Thirty glomeruli per sample were evaluated. The mean values with standard error values were calculated. […] The percent reduction in disease severity in a treated group was calculated as: […]

Assay [2] relates to anti-Thy 1 glomerulonephritis. In words: Glomerular production of fibronectin, PAI-1 and TGF-β1 (ELISA of cultured glomeruli). In kind it is in vivo, Sprague Dawley rats. To be noted: enalapril alone. On the procedure:
Animal housing and care were in accordance with the NIH Guide for the Care and Use of Laboratory Animals, NIH Publication No. 85-23, 1985. Animals were fed a normal protein diet (22% protein, Teklad No. 86 550, Teklad Premier Laboratory Diets, Madison, Wis., USA). Glomerulonephritis was induced by tail vein injection of 2.25 mg/Kg of the monoclonal anti-Thy 1.1 antibody OX-7 (NCCC, Biovest International Inc, Minneapolis, Minn., USA). OX-7 binds to a Thy 1-like epitope on the surface of mesangial cells causing complement-dependent cell lysis followed by fibrotic tissue repair (Bagchus et al., Lab Invest. 55:680-687 (1986)). Control animals were injected with similar volumes of phosphate-buffered saline (PBS). Groups of 8 rats were assigned and treated as outlined in Table 2. Doses of enalapril above […] in drinking water are maximally effective in this model (Peters et al., Kidney Int. 54:1570-1580 (1998)). […] Fibronectin and PAI-1 synthesis were measured with modified ELISA assays according to published methods ([…] al., Anal Biochem 104:205-214 (1980)). TGF-β1 production of cultured glomeruli was measured after acid-activation using a commercially available ELISA kit (DuoSet®, R&D Systems, Minneapolis, Minn., USA) according to the manufacturer's instructions. Three samples from each rat were analyzed. […] The percent reduction in disease severity in a treated group was calculated as: […]
(In an ELISA, binding on a coated surface is turned into a signal by an enzyme label.)

As for `CCOC(=O)[C@H](CCc1ccccc1)N[C@@H](C)C(=O)N1CCC[C@H]1C(=O)O` [enalapril], the “reduction of number of ED1+ cells” value in assay [1] was determined as 62%. In assay [2], the “reduction of fibronectin production” value is listed as 53%.
